Results from the supplement of paper PMC10307832.

Columns and labels:
Assay in all cases: relative viability (nuclei count vs DMSO), 5 days (fraction); higher = more cells survive
NCI-H1650 = system: NCI-H1650
Method in brief: (§1)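 Lung cancer cell lines were seeded in 1536-well plates and dosed by pin tool the next day, with either a single drug or a fixed anchor-drug dose combined with five library-drug doses (not always all listed) spaced in √10 steps. Five days later, one step fixed the cells and stained their nuclei (final 0.05% Triton X-100, 1% formaldehyde, 1 ug/ml Hoechst), and nuclei were counted on 4× images. Relative viability is the nuclei count in treated wells divided by the count in vehicle wells, and each value is the median of duplicate plates.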

NCI-H1793 = system: NCI-H1793
Method in brief: as §1

NCI-H1944 = system: NCI-H1944
Method in brief: as §1

NCI-H2087 = system: NCI-H2087
Method in brief: as §1

NCI-H2228 = system: NCI-H2228
Method in brief: as §1

NCI-H2405 = system: NCI-H2405
Method in brief: as §1

NCI-H3122 = system: NCI-H3122
Method in brief: as §1

NCI-H322M = system: NCI-H322M
Method in brief: as §1

NCI-H647 = system: NCI-H647
Method in brief: as §1

NCI-H727 = system: NCI-H727
Method in brief: as §1

RERF-LC-KJ = system: RERF-LC-KJ
Method in brief: as §1

SK-LU-1 = system: SK-LU-1
Method in brief: as §1

`CC1(C)CCC(c2ccc(Cl)cc2)=C(CN2CCN(c3ccc(C(=O)NS(=O)(=O)c4ccc(N[C@H](CCN5CCOCC5)CSc5ccccc5)c(S(=O)(=O)C(F)(F)F)c4)cc3)CC2)C1` [Navitoclax] + Cc1nc(Nc2ncc(C(=O)Nc3c(C)cccc3Cl)s2)cc(N2CCN(CCO)CC2)n1 [Dasatinib] (partner 0.075 µM) was tested. Which relative viability (NCI-H1650; first compound 0.05 µM) did it give?
Its relative viability is 0.314.

What about the relative viability (NCI-H1650; first compound 0.1581 µM) of the same molecule?
The relative viability was 0.277.

What about the relative viability (NCI-H1650; first compound 0.5 µM) of the same molecule?
The relative viability was 0.219.

What about the relative viability (NCI-H1793; first compound 0.005 µM) of the same molecule?
The relative viability was 0.409.

And the relative viability (NCI-H1793; first compound 0.01581 µM)?
Its relative viability is 0.325.

What about the relative viability (NCI-H1793; first compound 0.1581 µM) of the same molecule?
Its relative viability is 0.293.

What about the relative viability (NCI-H1793; first compound 0.5 µM) of the same molecule?
The relative viability was 0.147.

What about the relative viability (NCI-H1944; first compound 0.005 µM) of the same molecule?
The relative viability was 0.235.

What about the relative viability (NCI-H1944; first compound 0.01581 µM) of the same molecule?
Its relative viability is 0.235.

And the relative viability (NCI-H1944; first compound 0.05 µM)?
The relative viability was 0.268.

And the relative viability (NCI-H1944; first compound 0.1581 µM)?
The relative viability was 0.282.

What about the relative viability (NCI-H1944; first compound 0.5 µM) of the same molecule?
Its relative viability is 0.398.

What about the relative viability (NCI-H2087; first compound 0.005 µM) of the same molecule?
Its relative viability is 0.901.

What about the relative viability (NCI-H2087; first compound 0.01581 µM) of the same molecule?
The relative viability was 0.88.

What about the relative viability (NCI-H2087; first compound 0.1581 µM) of the same molecule?
The relative viability was 0.887.

And the relative viability (NCI-H2087; first compound 0.5 µM)?
The relative viability was 0.793.

What about the relative viability (NCI-H2228; first compound 0.005 µM) of the same molecule?
Its relative viability is 0.519.

What about the relative viability (NCI-H2228; first compound 0.01581 µM) of the same molecule?
Its relative viability is 0.525.

What about the relative viability (NCI-H2228; first compound 0.1581 µM) of the same molecule?
The relative viability was 0.592.

And the relative viability (NCI-H2228; first compound 0.5 µM)?
Its relative viability is 0.517.

What about the relative viability (NCI-H2405; first compound 0.005 µM) of the same molecule?
Its relative viability is 0.189.

What about the relative viability (NCI-H2405; first compound 0.01581 µM) of the same molecule?
The relative viability was 0.209.

What about the relative viability (NCI-H2405; first compound 0.05 µM) of the same molecule?
Its relative viability is 0.146.

What about the relative viability (NCI-H2405; first compound 0.1581 µM) of the same molecule?
Its relative viability is 0.196.

What about the relative viability (NCI-H2405; first compound 0.5 µM) of the same molecule?
Its relative viability is 0.132.

And the relative viability (NCI-H3122; first compound 0.005 µM)?
Its relative viability is 0.72.

And the relative viability (NCI-H3122; first compound 0.01581 µM)?
The relative viability was 0.838.

What about the relative viability (NCI-H3122; first compound 0.05 µM) of the same molecule?
Its relative viability is 0.904.

And the relative viability (NCI-H3122; first compound 0.1581 µM)?
The relative viability was 0.821.

And the relative viability (NCI-H3122; first compound 0.5 µM)?
The relative viability was 0.682.

And the relative viability (NCI-H322M; first compound 0.005 µM)?
Its relative viability is 0.263.

And the relative viability (NCI-H322M; first compound 0.01581 µM)?
Its relative viability is 0.24.

What about the relative viability (NCI-H322M; first compound 0.05 µM) of the same molecule?
The relative viability was 0.252.

What about the relative viability (NCI-H322M; first compound 0.1581 µM) of the same molecule?
Its relative viability is 0.271.

What about the relative viability (NCI-H322M; first compound 0.5 µM) of the same molecule?
The relative viability was 0.324.

What about the relative viability (NCI-H647; first compound 0.005 µM) of the same molecule?
The relative viability was 0.15.

What about the relative viability (NCI-H647; first compound 0.01581 µM) of the same molecule?
Its relative viability is 0.192.

What about the relative viability (NCI-H647; first compound 0.05 µM) of the same molecule?
The relative viability was 0.173.

What about the relative viability (NCI-H647; first compound 0.1581 µM) of the same molecule?
The relative viability was 0.17.

And the relative viability (NCI-H647; first compound 0.5 µM)?
Its relative viability is 0.315.

And the relative viability (NCI-H727; first compound 0.01581 µM)?
The relative viability was 0.364.

And the relative viability (NCI-H727; first compound 0.1581 µM)?
The relative viability was 0.365.

And the relative viability (NCI-H727; first compound 0.5 µM)?
The relative viability was 0.347.

And the relative viability (RERF-LC-KJ; first compound 0.005 µM)?
The relative viability was 0.787.

And the relative viability (RERF-LC-KJ; first compound 0.01581 µM)?
The relative viability was 0.757.

And the relative viability (RERF-LC-KJ; first compound 0.05 µM)?
The relative viability was 0.817.

What about the relative viability (RERF-LC-KJ; first compound 0.1581 µM) of the same molecule?
The relative viability was 0.823.

What about the relative viability (RERF-LC-KJ; first compound 0.5 µM) of the same molecule?
The relative viability was 0.918.

And the relative viability (SK-LU-1; first compound 0.005 µM)?
The relative viability was 0.182.

What about the relative viability (SK-LU-1; first compound 0.01581 µM) of the same molecule?
Its relative viability is 0.169.

What about the relative viability (SK-LU-1; first compound 0.05 µM) of the same molecule?
Its relative viability is 0.193.

And the relative viability (SK-LU-1; first compound 0.1581 µM)?
The relative viability was 0.203.

And the relative viability (SK-LU-1; first compound 0.5 µM)?
Its relative viability is 0.0932.
